From the CheMixHub viscosity set
Where “and” joins values, the source holds several entries; their conditions need not be identical. Equal entries are not always repeated. ± gives the uncertainty stated by the source.

Assay: xn = mol fraction of the nth substance listed

CN(C)C=O + O
viscosity (293.15 K, 101 kPa, x1 = 0.0254): 1.471 ± 0.26 mPa·s | viscosity (293.15 K, 101 kPa, x1 = 0.0555): 1.784 ± 0.29 mPa·s | viscosity (293.15 K, 101 kPa, x1 = 0.0915): 2.173 ± 0.34 mPa·s | viscosity (293.15 K, 101 kPa, x1 = 0.1355): 2.435 ± 0.36 mPa·s | viscosity (293.15 K, 101 kPa, x1 = 0.1904): 2.755 ± 0.4 mPa·s | viscosity (293.15 K, 101 kPa, x1 = 0.2608): 2.969 ± 0.42 mPa·s | viscosity (293.15 K, 101 kPa, x1 = 0.2921): 2.981 ± 0.43 mPa·s | viscosity (293.15 K, 101 kPa, x1 = 0.304): 3.018 ± 0.43 mPa·s | viscosity (293.15 K, 101 kPa, x1 = 0.3199): 2.973 ± 0.42 mPa·s | viscosity (293.15 K, 101 kPa, x1 = 0.3544): 2.937 ± 0.42 mPa·s | viscosity (293.15 K, 101 kPa, x1 = 0.4137): 2.705 ± 0.39 mPa·s | viscosity (293.15 K, 101 kPa, x1 = 0.4848): 2.515 ± 0.37 mPa·s | viscosity (293.15 K, 101 kPa, x1 = 0.5714): 2.002 ± 0.32 mPa·s | viscosity (293.15 K, 101 kPa, x1 = 0.6792): 1.674 ± 0.28 mPa·s | viscosity (293.15 K, 101 kPa, x1 = 0.8171): 1.276 ± 0.24 mPa·s | viscosity (293.15 K, 101 kPa, x2 = 0.1): 0.9649 ± 0.0065 mPa·s and 0.9619 ± 0.013 mPa·s | viscosity (293.15 K, 101 kPa, x2 = 0.2): 1.129 ± 0.0076 mPa·s and 1.125 ± 0.015 mPa·s and 1.65 ± 0.4 mPa·s | viscosity (293.15 K, 101 kPa, x2 = 0.3): 1.357 ± 0.009 mPa·s and 1.351 ± 0.018 mPa·s | viscosity (293.15 K, 101 kPa, x2 = 0.4): 1.674 ± 0.011 mPa·s and 1.67 ± 0.022 mPa·s and 2.25 ± 0.53 mPa·s | viscosity (293.15 K, 101 kPa, x2 = 0.5): 2.177 ± 0.014 mPa·s and 2.088 ± 0.028 mPa·s | viscosity (293.15 K, 101 kPa, x2 = 0.6): 2.564 ± 0.017 mPa·s and 2.556 ± 0.034 mPa·s | viscosity (293.15 K, 101 kPa, x2 = 0.7): 2.885 ± 0.018 mPa·s and 2.875 ± 0.038 mPa·s | viscosity (293.15 K, 101 kPa, x2 = 0.8): 2.761 ± 0.018 mPa·s and 2.754 ± 0.036 mPa·s | viscosity (293.15 K, 101 kPa, x2 = 0.9): 2.019 ± 0.013 mPa·s and 2.015 ± 0.027 mPa·s | viscosity (293.15 K, 101 kPa, x2 = 0.92): 1.818 ± 0.012 mPa·s and 1.813 ± 0.024 mPa·s | viscosity (293.15 K, 101 kPa, x2 = 0.94): 1.622 ± 0.011 mPa·s and 1.616 ± 0.021 mPa·s | viscosity (293.15 K, 101 kPa, x2 = 0.96): 1.408 ± 0.0094 mPa·s and 1.403 ± 0.019 mPa·s | viscosity (293.15 K, 101 kPa, x2 = 0.98): 1.203 ± 0.0081 mPa·s and 1.2 ± 0.016 mPa·s | viscosity (293.15 K, 101.33 kPa, x1 = 0.0217): 1.225 ± 0.038 mPa·s | viscosity (293.15 K, 101.33 kPa, x1 = 0.0466): 1.483 ± 0.045 mPa·s | viscosity (293.15 K, 101.33 kPa, x1 = 0.0989): 2.011 ± 0.06 mPa·s | viscosity (293.15 K, 101.33 kPa, x1 = 0.1478): 2.357 ± 0.07 mPa·s | viscosity (293.15 K, 101.33 kPa, x1 = 0.196): 2.65 ± 0.078 mPa·s | viscosity (293.15 K, 101.33 kPa, x1 = 0.2481): 2.888 ± 0.084 mPa·s | viscosity (293.15 K, 101.33 kPa, x1 = 0.2859): 2.908 ± 0.085 mPa·s | viscosity (293.15 K, 101.33 kPa, x1 = 0.3728): 2.707 ± 0.08 mPa·s | viscosity (293.15 K, 101.33 kPa, x1 = 0.4919): 2.262 ± 0.067 mPa·s | viscosity (293.15 K, 101.33 kPa, x1 = 0.5936): 1.748 ± 0.053 mPa·s | viscosity (293.15 K, 101.33 kPa, x1 = 0.7991): 1.184 ± 0.037 mPa·s | viscosity (293.15 K, 101.33 kPa, x1 = 0.8795): 1.073 ± 0.034 mPa·s | viscosity (298.15 K, 101 kPa, x2 = 0.1): 0.9018 ± 0.0061 mPa·s and 0.8984 ± 0.012 mPa·s | viscosity (298.15 K, 101 kPa, x2 = 0.3): 1.233 ± 0.0082 mPa·s and 1.232 ± 0.016 mPa·s | viscosity (298.15 K, 101 kPa, x2 = 0.4): 1.508 ± 0.01 mPa·s and 1.503 ± 0.02 mPa·s | viscosity (298.15 K, 101 kPa, x2 = 0.5): 1.853 ± 0.012 mPa·s and 1.847 ± 0.025 mPa·s | viscosity (298.15 K, 101 kPa, x2 = 0.6): 2.226 ± 0.015 mPa·s and 2.225 ± 0.029 mPa·s | viscosity (298.15 K, 101 kPa, x2 = 0.7): 2.477 ± 0.016 mPa·s and 2.469 ± 0.032 mPa·s | viscosity (298.15 K, 101 kPa, x2 = 0.8): 2.345 ± 0.031 mPa·s | viscosity (298.15 K, 101 kPa, x2 = 0.9): 1.746 ± 0.011 mPa·s and 1.744 ± 0.023 mPa·s | viscosity (298.15 K, 101 kPa, x2 = 0.92): 1.583 ± 0.01 mPa·s and 1.576 ± 0.021 mPa·s | viscosity (298.15 K, 101 kPa, x2 = 0.94): 1.412 ± 0.0094 mPa·s and 1.408 ± 0.019 mPa·s | viscosity (298.15 K, 101 kPa, x2 = 0.96): 1.234 ± 0.016 mPa·s | viscosity (298.15 K, 101 kPa, x2 = 0.98): 1.065 ± 0.0072 mPa·s and 1.063 ± 0.014 mPa·s | viscosity (302.15 K, 101 kPa, x1 = 0.0254): 1.266 ± 0.23 mPa·s | viscosity (302.15 K, 101 kPa, x1 = 0.0555): 1.535 ± 0.26 mPa·s | viscosity (302.15 K, 101 kPa, x1 = 0.0915): 1.856 ± 0.3 mPa·s | viscosity (302.15 K, 101 kPa, x1 = 0.1355): 2.071 ± 0.32 mPa·s | viscosity (302.15 K, 101 kPa, x1 = 0.1904): 2.333 ± 0.35 mPa·s | viscosity (302.15 K, 101 kPa, x1 = 0.2608): 2.542 ± 0.38 mPa·s | viscosity (302.15 K, 101 kPa, x1 = 0.2921): 2.58 ± 0.38 mPa·s | viscosity (302.15 K, 101 kPa, x1 = 0.304): 2.604 ± 0.38 mPa·s | viscosity (302.15 K, 101 kPa, x1 = 0.3199): 2.572 ± 0.38 mPa·s | viscosity (302.15 K, 101 kPa, x1 = 0.3544): 2.526 ± 0.37 mPa·s | viscosity (302.15 K, 101 kPa, x1 = 0.4137): 2.327 ± 0.35 mPa·s | viscosity (302.15 K, 101 kPa, x1 = 0.4848): 2.201 ± 0.34 mPa·s | viscosity (302.15 K, 101 kPa, x1 = 0.5714): 1.812 ± 0.3 mPa·s | viscosity (302.15 K, 101 kPa, x1 = 0.6792): 1.533 ± 0.26 mPa·s | viscosity (302.15 K, 101 kPa, x1 = 0.8171): 1.176 ± 0.22 mPa·s | viscosity (303.15 K, 101 kPa, x2 = 0.1): 0.8402 ± 0.0058 mPa·s and 0.8389 ± 0.011 mPa·s | viscosity (303.15 K, 101 kPa, x2 = 0.2): 0.9593 ± 0.0065 mPa·s and 0.9567 ± 0.013 mPa·s | viscosity (303.15 K, 101 kPa, x2 = 0.3): 1.137 ± 0.0076 mPa·s and 1.122 ± 0.015 mPa·s | viscosity (303.15 K, 101 kPa, x2 = 0.4): 1.354 ± 0.009 mPa·s and 1.352 ± 0.018 mPa·s | viscosity (303.15 K, 101 kPa, x2 = 0.5): 1.641 ± 0.011 mPa·s and 1.639 ± 0.022 mPa·s | viscosity (303.15 K, 101 kPa, x2 = 0.6): 1.943 ± 0.013 mPa·s and 1.939 ± 0.026 mPa·s | viscosity (303.15 K, 101 kPa, x2 = 0.7): 2.134 ± 0.014 mPa·s and 2.132 ± 0.028 mPa·s | viscosity (303.15 K, 101 kPa, x2 = 0.8): 2.026 ± 0.013 mPa·s and 2.02 ± 0.027 mPa·s
